Measurements: PubChem BioAssay AID624434 (The Scripps Research Institute Molecular Screening Center, 2012)
The source made the active and inactive calls.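 The calls were made as follows: active = inhibition of 30% or more at 50 µM; inactive = inhibition under 30% at 50 µM.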

Target: Serine/threonine-protein phosphatase 5 (Homo sapiens) (UniProt P53041)
Experiment: PP5 phosphatase inhibitors, OMFP cleavage, confirmation, biochemical, fluorescence, round 5, powder samples (AID 624434)
Conditions: purified PP5c, OMFP dephosphorylation, at 50 µM, active compounds read high

Serine/threonine-protein phosphatase 5 (Homo sapiens), sequence (P53041 whole entry, looked up): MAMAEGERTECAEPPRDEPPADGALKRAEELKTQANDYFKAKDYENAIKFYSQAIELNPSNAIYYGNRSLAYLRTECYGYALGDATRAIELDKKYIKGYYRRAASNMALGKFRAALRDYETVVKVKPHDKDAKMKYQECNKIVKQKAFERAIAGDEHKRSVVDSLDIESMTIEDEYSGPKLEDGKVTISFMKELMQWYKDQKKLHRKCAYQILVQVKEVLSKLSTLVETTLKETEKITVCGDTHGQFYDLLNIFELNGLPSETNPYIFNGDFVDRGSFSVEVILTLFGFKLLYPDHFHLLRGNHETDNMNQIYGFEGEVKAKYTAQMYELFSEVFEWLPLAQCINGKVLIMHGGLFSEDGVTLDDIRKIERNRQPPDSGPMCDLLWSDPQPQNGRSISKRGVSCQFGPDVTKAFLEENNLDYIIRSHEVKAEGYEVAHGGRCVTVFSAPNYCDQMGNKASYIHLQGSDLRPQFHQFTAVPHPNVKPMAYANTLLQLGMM

| inhibition | Structure (SMILES) |
| --- | --- |
| 83.4% | COc1ccccc1-c1n[nH]nc1C(=O)O |
| 52.6% | O=C(O)c1n[nH]nc1-c1ccccc1-c1ccccc1 |
| 81.1% | O=C(O)c1n[nH]nc1-c1ccccc1F |
| 13.8% (inactive) | O=C(O)c1[nH]ccc1-c1ccccc1 |
| 4.32% (inactive) | O=C(O)c1n[nH]nc1-c1cccnc1 |
| 84.9% | CC(C)Oc1ccccc1-c1n[nH]nc1C(=O)O |
| 81.9% | O=C(O)c1n[nH]nc1-c1ccccc1O |
| 70.5% | O=C(O)c1n[nH]nc1-c1cccc(F)c1 |
| 47.4% | CC(C)c1ccccc1-c1n[nH]nc1C(=O)O |
| -1.73% (inactive) | CNC(=O)c1n[nH]nc1-c1ccccc1 |

More lines, now with the values behind:

| Structure (SMILES) | inhibition |
| --- | --- |
| O=C(O)c1n[nH]nc1Br | 10.6% (inactive) |
| O=C(O)c1cnn(-c2ccccc2)n1 | 3.79% (inactive) |
| Cc1ccccc1-c1n[nH]nc1C(=O)O | 69.3% |
| O=C(O)c1n[nH]nc1-c1ccccn1 | 46.8% |
| CCc1ccccc1-c1n[nH]nc1C(=O)O | 62.5% |
| N#Cc1n[nH]nc1-c1ccccc1 | 2.79% (inactive) |
| CN(C)C(=O)c1n[nH]nc1-c1ccccc1 | 0.413% (inactive) |
| O=Cc1n[nH]nc1-c1ccccc1 | 1.47% (inactive) |
| COc1cccc(-c2n[nH]nc2C(=O)O)c1 | 77.6% |
| O=C(O)c1n[nH]nc1-c1ccc(F)cc1 | 66.5% |
| CCOc1ccccc1-c1n[nH]nc1C(=O)O | 85.6% |
| NC(=O)c1n[nH]nc1-c1ccccc1 | 5.21% (inactive) |
| O=C(O)c1n[nH]nc1C(=O)O | 12.4% (inactive) |
| COc1ccc(-c2n[nH]nc2C(=O)O)cc1 | 70% |
| c1ccc(-c2n[nH]nc2-c2nn[nH]n2)cc1 | 1.15% (inactive) |
